Assay results from PMC5824344 (ACS Chemical Biology, 2017).
Entries after “also recorded” stand apart in the source; their conditions may differ.

Tested on: HCV (JFH-1) in Huh7.5 cells
Assay: HCV antiviral assay in Huh7.5 cells (infectious titer by TCID50 assay)
Type: cell-based, hepatitis C virus
Conditions: MOI 2, 96 h, titration of 4 or 50 µm of 3
Procedure: Supplemental Figure 3: Antiviral activity of 4 in human hepatoma Huh7.5 cell line.
(A) Huh7.5 cells were infected with DENV (serotype 2, strain 16681, multiplicity of infection = 0.1) and treated with a titration of ToP-DNJ 4 or 50 µm of tocopherol 3 for 48 h. Infectious virus titer was measured by plaque assay on LLC-MK2 cells. Counts were normalized to 100% for untreated samples.
DENV eﬀect at the concentrations tested. (B) Huh7.5 cells were infected with HCV (JFH-1, multiplicity of infection = 2) and treated with a titration of ToP-DNJ 4 or 50 µm tocopherol 3 for 96 h. Infectious virus titer was measured by TCID50 assay on […]
tested. In both panels, each data point represent the mean of triplicates, with error bars showing standard error of the mean (GraphPad Prism). […]
Huh7.5 cells were seeded in a 96-well plate at a density of 5× 10^3 cells/well in 100 µL growth media. […] The supernatant was harvested, and infectious viral titre assessed immediately in the TCID50 assay.
Huh7.5 cells were seeded in a 96-well plate at a density of 2× 10^4 cells/well in 100 µL of growth media and incubated for 18 h. The supernatants to be evaluated were diluted 1:10 in growth media, and 7 serial half-log10 dilutions were subsequently prepared in the same media. […]
each well was scored as either positive (≥ 5 stained cells) or negative. TCID50 values were calculated according to the method of Reed and Muench.8 […]

## Cc1c(C)c2c(c(C)c1OCCCCCN1CC(O)C(O)C(O)C1CO)CCC(C)(CCCC(C)CCCC(C)CCCC(C)C)O2 (stereo not shown) [Compound 4, 5′-tocopheroxypentyl-DNJ]
  anti-HCV effect (infectious virus titer): neither an anti-DENV nor anti-HCV effect was observed; also recorded: Neither 4 nor 3 showed an anti-HCV eﬀect
